Earlier results as cited in US20040248232A1, “Method for treating Alzheimer's dementia” (priority 2003, published 2004).

Assays:
[1] = target: recombinant human cathepsin B (Homo sapiens, UniProt P07858); settings: cited from earlier work
[2] = target: cathepsin L (Homo sapiens, UniProt P07711); settings: relative to recombinant human cathepsin B; cited from earlier work
[3] = target: T1, cathepsin S (Homo sapiens, UniProt P25774); settings: relative to recombinant human cathepsin B; cited from earlier work
[4] = target: purified rat cathepsin L (Rattus norvegicus, UniProt P07154); settings: cited from earlier work
[5] = target: purified rat cathepsin B (Rattus norvegicus, UniProt P00787); settings: at 10 uM; cited from earlier work
[6] = target: T2, cathepsin K (Homo sapiens, UniProt P43235); settings: at micromolar levels; cited from earlier work
T2 sequence (P43235 115-329): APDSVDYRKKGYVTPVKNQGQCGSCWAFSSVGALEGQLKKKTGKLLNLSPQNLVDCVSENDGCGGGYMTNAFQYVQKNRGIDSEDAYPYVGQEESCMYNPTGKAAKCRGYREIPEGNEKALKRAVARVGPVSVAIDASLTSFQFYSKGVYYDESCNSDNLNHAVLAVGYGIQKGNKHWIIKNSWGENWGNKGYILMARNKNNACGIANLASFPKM

[7] = target: T1, cathepsin S; settings: at micromolar levels; cited from earlier work
[8] = target: cathepsin C (Homo sapiens, UniProt P53634); settings: at micromolar levels; cited from earlier work
[9] = target: T3, cathepsin L activity in liver (Mus musculus, UniProt P06797); settings: intraperitoneal injection, mice; cited from earlier work
T3 construct: host or cells: mouse liver (endogenous, in vivo dosing)

[10] = target: T4, cathepsin B activity (Mus musculus, UniProt P10605); settings: intraperitoneal injection, mice; cited from earlier work
T4 construct: host or cells: mouse (liver implied by the sentence), endogenous, in vivo dosing

[11] = test system: Colon-26 cancer cells; settings: intravenous or p.o. administration, mice; cited from earlier work
[12] = test system: human melanoma cells A375; settings: intravenous or p.o. administration, mice; cited from earlier work
[13] = test system: cancer induced osteoporosis; settings: intravenous or p.o. administration, mice; cited from earlier work
[14] = target: T5, cathepsin L activity in DLD-1 cells (Homo sapiens, UniProt P07711); settings: cited from earlier work
T5 construct: host or cells: DLD-1 cells (endogenous)

[15] = target: cathespin B (Homo sapiens, UniProt P07858); settings: cited from earlier work

Chain of purified rat cathepsin L (P07154 114-334): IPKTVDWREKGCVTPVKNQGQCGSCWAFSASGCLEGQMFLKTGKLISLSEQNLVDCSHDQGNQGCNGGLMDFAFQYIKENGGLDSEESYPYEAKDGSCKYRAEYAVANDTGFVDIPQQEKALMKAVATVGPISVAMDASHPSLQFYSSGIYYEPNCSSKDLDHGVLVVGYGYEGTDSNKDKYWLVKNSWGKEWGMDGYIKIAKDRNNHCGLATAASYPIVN
T1 sequence (P25774 115-331, species assumed): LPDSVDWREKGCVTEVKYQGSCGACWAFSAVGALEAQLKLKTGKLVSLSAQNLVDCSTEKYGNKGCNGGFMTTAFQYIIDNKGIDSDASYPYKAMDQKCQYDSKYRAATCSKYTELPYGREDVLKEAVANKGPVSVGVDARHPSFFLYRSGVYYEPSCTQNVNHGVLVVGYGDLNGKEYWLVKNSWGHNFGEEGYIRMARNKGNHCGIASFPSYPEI
T4 sequence (P10605 80-333): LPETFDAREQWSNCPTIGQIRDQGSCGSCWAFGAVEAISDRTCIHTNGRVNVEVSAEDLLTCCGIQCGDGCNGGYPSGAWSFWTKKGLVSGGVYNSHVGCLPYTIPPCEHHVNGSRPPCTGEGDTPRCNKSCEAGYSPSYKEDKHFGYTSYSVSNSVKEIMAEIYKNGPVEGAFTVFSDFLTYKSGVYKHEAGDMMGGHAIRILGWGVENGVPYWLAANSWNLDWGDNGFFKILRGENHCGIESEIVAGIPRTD
Chain of purified rat cathepsin B (P00787 80-333): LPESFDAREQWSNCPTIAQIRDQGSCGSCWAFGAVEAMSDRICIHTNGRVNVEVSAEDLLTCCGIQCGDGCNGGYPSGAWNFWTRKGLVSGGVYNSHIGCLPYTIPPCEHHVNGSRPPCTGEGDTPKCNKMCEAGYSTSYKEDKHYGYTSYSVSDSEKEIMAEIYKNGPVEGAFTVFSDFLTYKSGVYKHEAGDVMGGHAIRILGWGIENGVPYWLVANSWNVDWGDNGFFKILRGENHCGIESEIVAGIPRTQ
Chain of cathepsin C (P53634 25-463): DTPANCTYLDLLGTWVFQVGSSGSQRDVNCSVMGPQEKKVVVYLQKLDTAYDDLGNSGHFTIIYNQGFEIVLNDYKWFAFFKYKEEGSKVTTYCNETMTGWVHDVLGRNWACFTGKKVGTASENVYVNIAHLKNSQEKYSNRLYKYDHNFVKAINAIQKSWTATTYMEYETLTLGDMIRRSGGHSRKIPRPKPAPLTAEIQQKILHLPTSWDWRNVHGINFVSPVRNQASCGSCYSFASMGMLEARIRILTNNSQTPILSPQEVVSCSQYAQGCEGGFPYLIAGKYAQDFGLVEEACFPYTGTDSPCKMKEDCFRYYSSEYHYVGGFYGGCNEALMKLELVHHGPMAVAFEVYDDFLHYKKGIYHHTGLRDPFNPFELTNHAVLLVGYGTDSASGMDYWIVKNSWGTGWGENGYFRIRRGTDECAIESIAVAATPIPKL
Chain of cathepsin L (P07711 114-333, species assumed): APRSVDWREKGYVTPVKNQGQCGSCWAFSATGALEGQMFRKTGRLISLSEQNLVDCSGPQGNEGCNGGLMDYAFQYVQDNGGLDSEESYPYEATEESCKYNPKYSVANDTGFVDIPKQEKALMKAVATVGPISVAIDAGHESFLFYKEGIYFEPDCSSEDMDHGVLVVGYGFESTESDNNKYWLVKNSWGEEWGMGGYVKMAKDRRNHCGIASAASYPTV
T5 sequence (P07711 114-333): as the sequence (P07711 114-333, species assumed) above
T3 sequence (P06797 114-334): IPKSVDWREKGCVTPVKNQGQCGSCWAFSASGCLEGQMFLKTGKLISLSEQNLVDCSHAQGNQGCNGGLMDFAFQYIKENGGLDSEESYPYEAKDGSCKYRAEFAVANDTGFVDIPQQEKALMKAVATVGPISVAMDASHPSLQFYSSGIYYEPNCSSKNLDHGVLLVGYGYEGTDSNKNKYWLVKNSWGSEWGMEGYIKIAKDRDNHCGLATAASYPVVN

Question: Which “recombinant human cathepsin B activity” value [1] does the source give for `Cc1cccc(C[C@H](NC(=O)c2ccc(F)cc2F)C(=O)N[C@@H](C#N)COCc2cccc(C(=O)O)c2)c1` [N-[2-[(3-Carboxyphenyl)methoxyl-1-(S)-cyanoethyl]-3-methyl-N-(2,4-difluorobenzoyl)-L-phenylalaninamide] here?
Answer: inhibit

Question: What about the “fold less potent in blocking cathepsin L than cathepsin B” value [2] of the same molecule?
Answer: approximately 100 fold

Question: And the “fold less potent in blocking cathepsin S than cathepsin B” value [3]?
Answer: approximately 100 fold

Question: For `CN(C)C(=O)[C@H](Cc1ccccc1)NC(=O)C1OC1C(=O)NCCc1ccccn1` (stereo in doubt) [CLIK-148], which “inhibition of purified rat cathepsin L activity” value ([4]; at 1 uM) is on record?
Answer: completely inhibited

Question: What about the “level at which purified rat cathepsin L activity is inhibited” value [4] of the same molecule?
Answer: submicromolar levels

Question: What about the “effect on purified rat cathepsin B activity” value [5] of the same molecule?
Answer: no effect

Question: And the “activity on cathepsin K” value [6]?
Answer: minimal activities

Question: And the “activity on cathepsin S” value [7]?
Answer: minimal activities

Question: And the “activity on cathepsin C” value [8]?
Answer: minimal activities

Question: What about the “cathepsin L activity in liver” value [9] of the same molecule?
Answer: dose dependently inhibited

Question: And the “cathepsin B activity” value [10]?
Answer: no effect

Question: And the “bone metastasis of Colon-26 cancer cells” value [11]?
Answer: blocked bone metastasis

Question: And the “bone metastasis of human melanoma cells A375” value [12]?
Answer: blocked bone metastasis

Question: What about the cancer induced osteoporosis [13] of the same molecule?
Answer: blocked cancer induced osteoporosis

Question: With `CC(C)C[C@H](NC(=O)[C@H]1CCCN1C#N)C(=O)OCc1ccccc1` [1-cyano-(D)-prolylleucine benzyl ester] as the molecule, how does the “cathepsin L activity in DLD-1 cells” value [14] read?
Answer: completely inhibited

Question: And the “activity on cathespin B” value [15]?
Answer: minimal activity
